In PMC4109680, “Identification and Preclinical Pharmacology of the γ-Secretase Modulator BMS-869780” (International Journal of Alzheimer's Disease, 2014):
Like-named read-outs stand apart in the source and are kept apart here.

Experiments:
[1] = tested on: brain Aβ1-42, brain Aβ1-40, plasma Aβ1-40; assay: Rat intraperitoneal dose response, brain and plasma Aβ 5 hours after dosing; type: in vivo; conditions: for IC50: Rattus norvegicus
Description: IC50 determinations for Aβ1-42 and Aβ1-40 in H4-APPsw cultures in 384-well format were determined using homogeneous time-resolved fluorescence immunoassays as previously described. The principle of these assays is illustrated in Figures 1(c) and 1(d). In other experiments using H4-APPsw cultures, Aβ was quantified by ELISA; for Aβ1-42 the combination of monoclonal antibodies was 26D6 and 565-HRP; for Aβ1-40 it was TSD and 26D6-HRP, and for Aβ1-x it was 4G8 and 26D6-HRP. In some experiments a novel 4-plex Aβ electrochemiluminescence immunoassay was used (Mesoscale Discovery catalog number N45ZA-1). Briefly, the 4-plex was carried out in 96-well format, with 4 separate spots of capture antibodies in each well. The 96-well plates were prepared by the manufacturer, with spots of monoclonal antibodies for Aβ1-42, Aβ1-40, and Aβ1-38, and an additional fourth spot of streptavidin in each well. Plates were initially incubated with blocking buffer (5% BSA in phosphate buffered saline, 200 μL per well) for 2 hours at ambient temperature and then with D2A6H-biotin conjugate (50 ng/mL in 1% BSA, phosphate buffered saline, 25 μL per well) for 1 hour. Plates were then rinsed with phosphate buffered saline before addition of experimental samples for determination of Aβ1-42, Aβ1-40, Aβ1-38, and Aβ1-37 levels, following the manufacturer's instructions as for the Aβ 3-plex kit (catalog number K15148E-1). Rat brain extracts for use in the 4-plex assay were made in 0.2% diethylamine, as previously described. For detection of rat Aβ peptides in the 4-plex (Figure 5), 252Q6-sulfo-tag conjugate was used, and for detection of human Aβ peptides from cell cultures 6E10-sulfo-tag conjugate was used. For Aβ in transiently transfected PS1/PS2 dKO fibroblasts, Aβ1-42 was quantified using an ELISA kit (WACO), and Aβ1-40 was quantified by ELISA as described above for H4-APPsw cultures. For triple transgenic mice (3xTg; [63]), human transgenic Aβ1-42 was assayed in brain homogenates using an ELISA kit (WACO). For the rat and mouse experiments illustrated in Figures 7 and 8, brain samples were prepared by solid phase extraction, and endogenous rat brain Aβ1-42 and Aβ1-40 were quantified by ELISA as previously described for wild type mice. For brain extracts made using solid phase extraction, calibration of Aβ was relative, based on the approximately linear response of the assay in the range tested. For brain extracts made in 0.2% diethylamine, Aβ1-42, Aβ1-40, Aβ1-38, and Aβ1-37 concentrations in brain and cell culture samples were determined by fitting the results of immunoassays against calibration curves derived from a range of dilutions of the corresponding synthetic peptides on each assay plate using a quadratic curve fit (Graphpad Prizm 5.0). Aβ1-x was calibrated in the same way against synthetic Aβ1-40 peptide. Results were expressed in units of pM, corrected for sample dilution.
Figure 7 BMS-869780 dose response and evaluation of residual Aβ levels in rat brain. (a) Groups of rats received intraperitoneal (IP) injections of vehicle or BMS-869780 at doses of 100, 30, 10, 3, 1, and 0.3 mg/kg. Additional rats were dosed with GSI BMS-698861 at 30 mg/kg as a positive control for Aβ-lowering. Group sizes were seven rats for each dose of BMS-869780 and 14 rats for vehicle and GSI dose groups. Brain and plasma were harvested 5 hours after dosing. Brain Aβ1-42 (green), brain Aβ1-40 (blue), brain Aβ1-x (black), and plasma Aβ1-40 (red) were determined. Values are expressed as % relative to vehicle group mean. Whiskers represent standard error. ⊗Aβ1-x was not determined in the groups dosed at 3, 1, and 0.3 mg/kg. (b) Brain Aβ1-40 was plotted against brain Aβ1-42 for each rat dosed with BMS-869780 (black ▼) and for each rat dosed with vehicle (grey ●). Values are expressed as % relative to vehicle group mean. Whiskers represent standard error. […]

pregnane-X-receptor = biological target: T1, pregnane-X-receptor (Homo sapiens, UniProt O75469); assay: Pregnane-X-receptor transactivation assay (PXR-TA), luciferase reporter in HepG2 cells; type: cell-based
T1 construct: host or cells: HepG2
T1 sequence (O75469 whole entry): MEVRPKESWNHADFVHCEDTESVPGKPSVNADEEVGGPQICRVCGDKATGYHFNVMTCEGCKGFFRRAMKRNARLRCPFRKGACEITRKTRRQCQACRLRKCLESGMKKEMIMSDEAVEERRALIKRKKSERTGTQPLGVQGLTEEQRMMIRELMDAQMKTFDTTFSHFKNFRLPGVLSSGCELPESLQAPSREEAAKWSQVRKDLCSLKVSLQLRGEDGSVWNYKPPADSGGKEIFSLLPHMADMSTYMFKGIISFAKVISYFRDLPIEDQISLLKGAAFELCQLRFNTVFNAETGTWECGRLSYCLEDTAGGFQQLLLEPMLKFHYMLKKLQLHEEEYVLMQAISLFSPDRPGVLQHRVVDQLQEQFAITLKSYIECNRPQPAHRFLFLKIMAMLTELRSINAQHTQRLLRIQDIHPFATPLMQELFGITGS
Description: Determination of IC50 values for inhibition of secreted alkaline phosphatase (SEAP) was carried out using an H4 cell line stably expressing SEAP. Cells were treated overnight with compounds in 384-well format, and SEAP accumulation in the culture media was quantified using a chemiluminescence substrate. The pregnane-X-receptor transactivation assay (PXR-TA) was based on the methods of Goodwin et al. as described previously. In the 4-day rat study with BMS-869780, tissues were fixed in 10% neutral buffered formalin, embedded in paraffin, sectioned, stained with hematoxylin and eosin, and examined by light microscopy.
Figure 10 BMS-869780 caused PXR activation in vitro and lipidosis in rat liver. (a) PXR activation in the presence of BMS-869780 was evaluated in HepG2 cell cultures using a luciferase transcriptional reporter construct (●), or by assay of CYP3A4 mRNA levels in primary human hepatocyte (PHH) cultures from two individual donors (▲ and ▼). Activation in both assays is expressed as % relative to activation in the presence of rifampicin, 10 μM, in parallel cultures. (b) Liver section from vehicle-dosed rats. (c) Liver section from rats given 4 daily doses of BMS-869780 at 100 mg/kg.

[2] = 3 mg/kg IP, 5 hours after dosing

COc1cc(Nc2nc3n(n2)CCCC[C@H]3c2ccc(F)cc2)ccc1-n1cnc(Cl)c1 [BMS-869780]
plasma Aβ1-40 lowering ([1]; 0.3 mg/kg IP, 5 hours after dosing): ca. 50% | brain Aβ1-40 lowering [1, 2]: ca. 50% | brain Aβ1-42 lowering [1, 2]: ca. 50% | residual Aβ1-40 assay signal at high plasma concentrations (best fit curve) ([1]; % relative to vehicle): 11% | residual Aβ1-42 assay signal at high plasma concentrations (best fit curve) ([1]; % relative to vehicle): 29% | IC50 ([1]; ip, four-parameter fit, 95% confidence interval 44–158 nM, read-out: apparent IC50 (plasma concentration) for plasma Aβ1-40): 84 nM | IC50 ([1]; ip, four-parameter fit, 95% confidence interval 618–1053 nM, read-out: apparent IC50 (plasma concentration) for brain Aβ1-42): 807 nM | IC50 ([1]; ip, four-parameter fit, 95% confidence interval 704–1264 nM, read-out: apparent IC50 (plasma concentration) for brain Aβ1-40): 943 nM | IC50 ([1]; IP, 5 hours, read-out: concentration in plasma associated with 50% lowering of brain Aβ1-42): ~1000 nM | brain Aβ1-x levels ([1]; highest three doses (10, 30, 100 mg/kg IP), 5 hours): not affected | lowering of brain Aβ1-42 and Aβ1-40 ([1]; in mice and rats): ≥ 75% | activity in PXR-TA (pregnane-X-receptor): robust activity | concentrations at which PXR transcription was activated (pregnane-X-receptor; HepG2 luciferase reporter, relative to rifampicin 10 μM): ≥ 300 nM
